Experimental data: patent publication EP2003129B1, “1H-Pyrido[3,4-B]indol-1-one and 2,3,4,9-Tetrahydro-1H-Beta-Carbolin-1-one Derivatives” (Nerviano Medical Sciences S.r.l., priority 2007, dated 2008)

Tests used:
[1] = molecular target: VEGFR3 (Homo sapiens, UniProt P35916); assay: Enzyme inhibition activity, VEGFR3; type: biochemical
Procedure: (§1) Operating as described above in the tests of inhibition activity on enzymes, or in an analogous way, the following data were obtained for 2-methyl-N-{4-[2-(methylamino)-2-oxoethyl]-1-oxo-2,9-dihydro-1H-beta-carbolin-6-yl}hexanamide (Compound XIIIh). The same compound was tested for cytotoxic activity on cells as described below.

[2] = molecular target: T1, JAK3 (Homo sapiens, UniProt P52333); assay: Enzyme inhibition activity, JAK3; type: biochemical
T1 sequence (P52333 1-1124): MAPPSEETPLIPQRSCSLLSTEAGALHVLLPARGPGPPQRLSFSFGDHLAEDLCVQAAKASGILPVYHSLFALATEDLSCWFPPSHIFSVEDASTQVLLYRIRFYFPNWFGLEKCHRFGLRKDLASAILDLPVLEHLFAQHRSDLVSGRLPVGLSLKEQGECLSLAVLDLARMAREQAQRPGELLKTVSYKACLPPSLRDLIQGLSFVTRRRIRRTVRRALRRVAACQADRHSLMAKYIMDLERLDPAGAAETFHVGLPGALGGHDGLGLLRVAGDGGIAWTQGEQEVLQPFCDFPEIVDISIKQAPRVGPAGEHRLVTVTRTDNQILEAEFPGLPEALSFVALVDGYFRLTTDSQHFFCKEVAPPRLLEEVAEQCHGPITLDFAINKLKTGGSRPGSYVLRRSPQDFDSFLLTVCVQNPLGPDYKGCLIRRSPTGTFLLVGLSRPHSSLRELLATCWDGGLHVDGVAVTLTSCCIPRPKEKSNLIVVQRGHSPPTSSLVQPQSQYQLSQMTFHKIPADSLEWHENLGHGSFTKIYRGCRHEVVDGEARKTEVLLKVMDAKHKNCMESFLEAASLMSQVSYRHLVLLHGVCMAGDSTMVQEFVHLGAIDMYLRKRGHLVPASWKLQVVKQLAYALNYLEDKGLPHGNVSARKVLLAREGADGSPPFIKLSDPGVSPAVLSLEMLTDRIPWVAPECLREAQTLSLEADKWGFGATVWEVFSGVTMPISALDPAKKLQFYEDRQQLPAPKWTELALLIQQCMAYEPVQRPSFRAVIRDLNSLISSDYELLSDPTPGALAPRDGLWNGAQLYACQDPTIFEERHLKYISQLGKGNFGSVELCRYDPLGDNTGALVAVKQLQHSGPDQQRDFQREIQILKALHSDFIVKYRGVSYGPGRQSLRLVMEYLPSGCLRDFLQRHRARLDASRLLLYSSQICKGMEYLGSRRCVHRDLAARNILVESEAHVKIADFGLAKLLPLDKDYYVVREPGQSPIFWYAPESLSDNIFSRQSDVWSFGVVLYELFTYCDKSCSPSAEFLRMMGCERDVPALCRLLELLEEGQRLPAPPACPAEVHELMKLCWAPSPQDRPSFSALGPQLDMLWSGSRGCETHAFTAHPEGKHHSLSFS
Procedure: as §1

[3] = molecular target: T2, PDK1 (Homo sapiens, UniProt O15530); assay: Enzyme inhibition activity, PDK1; type: biochemical
T2 sequence (O15530 1-556): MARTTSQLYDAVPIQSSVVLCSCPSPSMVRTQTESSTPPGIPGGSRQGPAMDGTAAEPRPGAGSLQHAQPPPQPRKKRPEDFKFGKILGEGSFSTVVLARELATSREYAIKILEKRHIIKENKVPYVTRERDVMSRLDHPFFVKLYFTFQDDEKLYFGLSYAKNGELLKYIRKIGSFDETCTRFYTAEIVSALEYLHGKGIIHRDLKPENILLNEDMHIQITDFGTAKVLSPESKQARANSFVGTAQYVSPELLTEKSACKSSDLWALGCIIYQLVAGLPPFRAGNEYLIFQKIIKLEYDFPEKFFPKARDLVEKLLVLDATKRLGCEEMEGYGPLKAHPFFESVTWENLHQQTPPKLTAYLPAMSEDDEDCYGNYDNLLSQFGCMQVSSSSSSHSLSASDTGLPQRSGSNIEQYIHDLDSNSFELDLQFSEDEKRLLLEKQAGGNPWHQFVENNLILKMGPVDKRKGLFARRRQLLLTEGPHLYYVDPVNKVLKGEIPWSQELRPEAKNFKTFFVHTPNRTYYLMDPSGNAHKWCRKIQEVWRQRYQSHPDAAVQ
Procedure: as §1

[4] = molecular target: RET (Homo sapiens, UniProt P07949); assay: Enzyme inhibition activity, RET; type: biochemical
RET, sequence (P07949 29-1114, species assumed): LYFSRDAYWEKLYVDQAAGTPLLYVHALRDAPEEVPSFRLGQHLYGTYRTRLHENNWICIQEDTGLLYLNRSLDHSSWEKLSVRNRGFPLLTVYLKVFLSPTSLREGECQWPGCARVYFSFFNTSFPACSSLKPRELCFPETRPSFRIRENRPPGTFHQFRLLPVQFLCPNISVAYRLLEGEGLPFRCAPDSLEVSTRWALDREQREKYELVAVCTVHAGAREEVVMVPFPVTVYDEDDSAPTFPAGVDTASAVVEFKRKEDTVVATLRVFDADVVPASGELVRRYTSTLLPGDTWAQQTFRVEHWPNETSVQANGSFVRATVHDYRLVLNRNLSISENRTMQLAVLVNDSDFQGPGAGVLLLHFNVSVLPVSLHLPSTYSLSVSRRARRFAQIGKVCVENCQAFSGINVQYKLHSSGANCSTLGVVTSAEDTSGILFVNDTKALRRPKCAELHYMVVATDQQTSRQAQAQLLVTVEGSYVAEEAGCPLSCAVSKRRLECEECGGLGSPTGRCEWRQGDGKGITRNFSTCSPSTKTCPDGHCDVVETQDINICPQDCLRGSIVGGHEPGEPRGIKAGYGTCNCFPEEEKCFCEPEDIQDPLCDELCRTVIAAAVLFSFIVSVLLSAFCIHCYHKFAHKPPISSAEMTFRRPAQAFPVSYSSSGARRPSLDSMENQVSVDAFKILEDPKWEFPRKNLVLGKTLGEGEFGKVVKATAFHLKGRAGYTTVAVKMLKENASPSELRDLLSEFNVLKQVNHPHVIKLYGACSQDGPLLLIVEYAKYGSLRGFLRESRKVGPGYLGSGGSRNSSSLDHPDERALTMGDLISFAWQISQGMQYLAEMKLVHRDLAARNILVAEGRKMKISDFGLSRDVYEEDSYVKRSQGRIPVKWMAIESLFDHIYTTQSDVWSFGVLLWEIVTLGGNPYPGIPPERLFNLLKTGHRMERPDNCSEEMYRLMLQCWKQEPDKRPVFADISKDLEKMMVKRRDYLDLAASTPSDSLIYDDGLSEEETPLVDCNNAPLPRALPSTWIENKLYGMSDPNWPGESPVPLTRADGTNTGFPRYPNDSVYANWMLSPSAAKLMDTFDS
Procedure: as §1

[5] = molecular target: AUR1 (Homo sapiens, UniProt Q96GD4); assay: Enzyme inhibition activity, AUR1; type: biochemical
AUR1, sequence (Q96GD4 whole entry): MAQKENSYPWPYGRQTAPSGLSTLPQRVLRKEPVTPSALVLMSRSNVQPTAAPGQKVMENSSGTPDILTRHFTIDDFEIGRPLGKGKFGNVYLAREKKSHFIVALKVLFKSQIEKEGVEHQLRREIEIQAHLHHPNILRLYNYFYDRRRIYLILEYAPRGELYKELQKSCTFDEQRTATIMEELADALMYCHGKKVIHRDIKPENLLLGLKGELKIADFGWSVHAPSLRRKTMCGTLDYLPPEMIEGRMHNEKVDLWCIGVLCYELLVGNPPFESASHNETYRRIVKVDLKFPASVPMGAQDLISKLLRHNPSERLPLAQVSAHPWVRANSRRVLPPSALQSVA
Procedure: as §1

[6] = molecular target: FGFR1 (Homo sapiens, UniProt P11362); assay: Enzyme inhibition activity, FGFR1; type: biochemical
Procedure: as §1

[7] = molecular target: T3, CDK2/CYCA (Homo sapiens, UniProt P24941); assay: Inhibition assay of Cdk2/Cyclin A activity; type: biochemical; details: Enzyme CDK2/CYCA
T3 construct: made in house
Procedure: Inhibition assay of Cdk2/Cyclin A activity
1.5 µM histone H1 substrate, 25 µM ATP (0.2 µCi P33γ-ATP), 30 ng of baculovirus co-expressed Cdk2/Cyclin A, 10 µM inhibitor in a final volume of 100 µl buffer (TRIS HCl 10 mM pH 7.5, MgCl2 10 mM, 7.5 mM DTT) were added to each well of a 96 U bottom well plate. After 10 min at 37 °C incubation, reaction was stopped by 20 µl EDTA 120 mM.
100 µl were transferred from each well from the kinase reaction to MultiScreen plate, to allow substrate binding to phosphocellulose filter. Plates were then washed 3 times with 150 µl/well PBS Ca^++/Mg^++ free and filtered by MultiScreen filtration system.
Filters were allowed to dry at 37°C, then 100 µl/well scintillant were added and 33P labeled histone H1 was detected by radioactivity counting in the Top-Count instrument. Results: data were analyzed and expressed as % inhibition referred to total activity of enzyme (=100%).
All compounds showing inhibition ≥ 50 % were further analyzed in order to study and define potency (IC50) as well as the kinetic-profile of inhibitor through Ki calculation. IC50 determination: the protocol used was the same described above, where inhibitors were tested at different concentrations ranging from 0.0045 to 10 µM. […]

[8] = molecular target: GSK3beta (Homo sapiens, UniProt P49841); assay: Enzyme inhibition activity, GSK3beta; type: biochemical
GSK3beta, sequence (P49841 whole entry, species assumed): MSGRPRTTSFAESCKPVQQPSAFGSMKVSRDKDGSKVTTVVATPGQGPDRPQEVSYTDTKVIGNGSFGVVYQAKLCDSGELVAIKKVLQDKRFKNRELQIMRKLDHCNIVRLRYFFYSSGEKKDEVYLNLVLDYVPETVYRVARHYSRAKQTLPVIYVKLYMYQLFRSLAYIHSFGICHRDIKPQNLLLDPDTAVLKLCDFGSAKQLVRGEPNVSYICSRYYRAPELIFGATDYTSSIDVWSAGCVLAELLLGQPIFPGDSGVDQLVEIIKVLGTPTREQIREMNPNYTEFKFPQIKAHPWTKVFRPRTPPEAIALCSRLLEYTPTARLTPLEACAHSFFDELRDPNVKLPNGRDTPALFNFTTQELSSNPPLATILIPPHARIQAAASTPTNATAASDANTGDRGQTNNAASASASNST
Procedure: as §1

[9] = molecular target: T4, AUR2 (Homo sapiens, UniProt O14965); assay: Inhibition assay of Aurora-2 activity; type: biochemical; details: Enzyme AUR2
T4 sequence (O14965 1-403): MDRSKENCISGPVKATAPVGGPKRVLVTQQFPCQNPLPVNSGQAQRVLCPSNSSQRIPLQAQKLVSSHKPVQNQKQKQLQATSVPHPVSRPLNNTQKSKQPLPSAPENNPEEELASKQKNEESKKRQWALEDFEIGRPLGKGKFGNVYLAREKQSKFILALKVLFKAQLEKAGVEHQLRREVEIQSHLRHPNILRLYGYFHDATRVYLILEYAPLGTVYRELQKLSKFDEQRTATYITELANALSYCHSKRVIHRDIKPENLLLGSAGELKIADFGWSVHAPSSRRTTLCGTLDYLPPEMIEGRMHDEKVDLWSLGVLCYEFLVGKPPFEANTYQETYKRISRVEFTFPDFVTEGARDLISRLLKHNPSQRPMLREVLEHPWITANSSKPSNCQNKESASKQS
Procedure: Inhibition assay of Aurora-2 activity
The inhibiting activity and the potency of selected compounds was determined through a method of assay based on the use of the streptavidin scintillation proximity assay beads (amershampharmacia biotech) run in a 96 well plates. At the end of the reaction, the biotinylated peptide substrate was captured with the beads and subsequently allowed to stratify using CsCl. When a radioactivity labeled phosphate moiety was transferred by the kinase to the beads-bound peptide, light emitted was measured in a scintillation counter.
The inhibition assay of Aurora-2 activity was performed in 96 wells plate according to the following protocol:
8 µM biotinylated peptide (4 repeats of LRRWSLG), 10 µM ATP (0.5 uCi P^33g-ATP), 10 nM Aurora2, 10 µM inhibitor in a final volume of 60 µl buffer (HEPES 50 mM pH 7.0, MgCl2 10 mM, 1 mM DTT, 0.125 mg/ml BSA, 3µM orthovanadate) were added to each well of a 96 U bottom well plate. After 30 minutes at room temperature incubation, reaction was stopped and biotinylated peptide captured by adding 100 µl of bead suspension.
100 µl of CsCl 7.5 M were added to each well and let stand one hour before radioactivity was counted in the Top-Count instrument.
Results: data were analyzed and expressed as % inhibition referred to total activity of enzyme (=100%). […]

[10] = tested on: A2780; assay: Cytotoxic activity on cells (cell proliferation, cellular ATP monitoring); type: cell-based; details: Homo sapiens; Cell Type A2780; concentration inhibiting cell proliferation by 50%; 72 hours treatment
Procedure: Exponentially growing cells A2780 were seeded and incubated at 37°C in a humidified 5% CO2 atmosphere. After 24 hours, scalar doses of test compound were added to the medium and cells were incubated for additional 72 hours.
At the end of treatment, cell proliferation was determined by a cellular ATP monitoring system which consists of a mixture of luciferase and luciferin, reconstituted in a lysis buffer; 100 µL/well of this solution were added to the cells. The plates were then shaken for 2 minutes in an orbital shaker and were read in a luminometer, with the signal linearly proportional to the cell number.

[11] = molecular target: VEGFR2 (Homo sapiens, UniProt P35968); assay: Enzyme inhibition activity, VEGFR2; type: biochemical
VEGFR2, sequence (P35968 20-1356, species assumed): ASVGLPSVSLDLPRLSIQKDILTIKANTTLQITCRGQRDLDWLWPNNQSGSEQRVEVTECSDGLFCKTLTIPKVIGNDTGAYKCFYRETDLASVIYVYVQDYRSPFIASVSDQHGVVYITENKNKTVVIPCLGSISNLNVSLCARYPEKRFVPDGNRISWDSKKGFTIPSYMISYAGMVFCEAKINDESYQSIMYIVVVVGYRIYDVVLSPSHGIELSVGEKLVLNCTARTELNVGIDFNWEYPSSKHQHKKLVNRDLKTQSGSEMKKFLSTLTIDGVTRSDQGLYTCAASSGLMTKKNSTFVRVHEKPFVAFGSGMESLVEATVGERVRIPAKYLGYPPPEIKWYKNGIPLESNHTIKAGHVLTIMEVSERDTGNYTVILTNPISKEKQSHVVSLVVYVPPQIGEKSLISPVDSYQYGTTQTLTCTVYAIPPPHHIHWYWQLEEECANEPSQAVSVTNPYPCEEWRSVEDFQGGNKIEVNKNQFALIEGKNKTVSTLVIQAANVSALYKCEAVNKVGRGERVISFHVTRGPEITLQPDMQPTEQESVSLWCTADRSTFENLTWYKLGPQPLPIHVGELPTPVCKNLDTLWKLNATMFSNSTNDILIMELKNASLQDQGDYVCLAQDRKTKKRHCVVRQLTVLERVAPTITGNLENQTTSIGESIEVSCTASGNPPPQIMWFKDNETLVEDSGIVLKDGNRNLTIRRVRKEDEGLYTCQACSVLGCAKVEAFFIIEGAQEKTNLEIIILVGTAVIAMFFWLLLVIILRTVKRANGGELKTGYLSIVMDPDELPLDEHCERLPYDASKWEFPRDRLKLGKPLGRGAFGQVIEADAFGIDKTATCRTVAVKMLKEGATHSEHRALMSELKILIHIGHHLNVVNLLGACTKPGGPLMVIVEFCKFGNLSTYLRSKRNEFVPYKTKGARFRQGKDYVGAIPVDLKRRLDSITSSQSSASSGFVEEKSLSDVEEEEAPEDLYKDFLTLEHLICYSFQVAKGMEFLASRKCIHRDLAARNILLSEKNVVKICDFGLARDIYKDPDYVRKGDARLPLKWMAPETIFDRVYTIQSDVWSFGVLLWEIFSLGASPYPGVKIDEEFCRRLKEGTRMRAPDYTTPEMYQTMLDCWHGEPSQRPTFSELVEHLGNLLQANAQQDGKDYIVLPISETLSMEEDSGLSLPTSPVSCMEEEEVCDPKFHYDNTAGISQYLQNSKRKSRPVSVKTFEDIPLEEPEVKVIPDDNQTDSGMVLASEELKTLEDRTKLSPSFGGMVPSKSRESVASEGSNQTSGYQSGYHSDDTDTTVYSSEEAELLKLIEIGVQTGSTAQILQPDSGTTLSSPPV
Procedure: as §1

[12] = molecular target: PKAalpha (Homo sapiens, UniProt P17612); assay: Enzyme inhibition activity, PKAalpha; type: biochemical
Procedure: as §1

VEGFR3, sequence (P35916 25-1363, species assumed): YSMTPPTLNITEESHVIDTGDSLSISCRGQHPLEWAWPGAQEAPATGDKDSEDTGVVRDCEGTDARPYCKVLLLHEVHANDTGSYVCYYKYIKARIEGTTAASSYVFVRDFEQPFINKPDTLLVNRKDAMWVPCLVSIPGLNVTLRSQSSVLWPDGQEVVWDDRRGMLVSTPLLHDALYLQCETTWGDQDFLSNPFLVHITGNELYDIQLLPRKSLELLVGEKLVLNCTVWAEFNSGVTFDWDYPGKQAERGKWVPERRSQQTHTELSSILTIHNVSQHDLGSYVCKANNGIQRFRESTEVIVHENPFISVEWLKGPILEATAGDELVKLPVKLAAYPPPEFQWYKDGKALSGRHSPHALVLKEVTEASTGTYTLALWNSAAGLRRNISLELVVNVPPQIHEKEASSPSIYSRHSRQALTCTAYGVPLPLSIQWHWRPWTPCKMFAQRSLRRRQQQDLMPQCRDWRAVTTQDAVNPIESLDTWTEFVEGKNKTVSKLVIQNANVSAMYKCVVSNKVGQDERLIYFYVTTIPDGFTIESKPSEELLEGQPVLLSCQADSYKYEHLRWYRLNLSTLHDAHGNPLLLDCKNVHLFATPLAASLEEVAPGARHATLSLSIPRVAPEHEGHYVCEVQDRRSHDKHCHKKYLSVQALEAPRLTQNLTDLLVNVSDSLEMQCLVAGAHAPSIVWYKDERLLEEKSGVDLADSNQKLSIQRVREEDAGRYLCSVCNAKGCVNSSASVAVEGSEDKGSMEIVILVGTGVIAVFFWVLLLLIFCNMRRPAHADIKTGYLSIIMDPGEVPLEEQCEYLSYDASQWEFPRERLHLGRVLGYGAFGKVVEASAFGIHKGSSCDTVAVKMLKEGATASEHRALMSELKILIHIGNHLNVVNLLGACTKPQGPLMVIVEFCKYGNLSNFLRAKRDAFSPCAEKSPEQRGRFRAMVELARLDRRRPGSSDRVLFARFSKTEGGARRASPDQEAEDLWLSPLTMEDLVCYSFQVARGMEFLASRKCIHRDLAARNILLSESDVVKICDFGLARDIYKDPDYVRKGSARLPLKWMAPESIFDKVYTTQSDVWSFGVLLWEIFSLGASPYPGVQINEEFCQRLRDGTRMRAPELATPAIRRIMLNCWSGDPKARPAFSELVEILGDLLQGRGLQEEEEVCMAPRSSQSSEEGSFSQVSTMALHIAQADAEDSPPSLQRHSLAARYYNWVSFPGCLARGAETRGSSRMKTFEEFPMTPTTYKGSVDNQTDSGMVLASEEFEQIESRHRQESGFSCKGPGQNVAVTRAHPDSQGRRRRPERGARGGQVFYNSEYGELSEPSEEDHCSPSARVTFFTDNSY

Q: How did the IC50 [1] turn out when CCCCC(C)C(=O)Nc1ccc2[nH]c3c(=O)[nH]cc(CC(=O)NC)c3c2c1 (stereo not drawn) [Compound XIIIh, 2-Methyl-N-{4-[2-(methylamino)-2-oxoethyl]-1-oxo-2,9-dihydro-1H-beta-carbolin-6-yl}hexanamide] was run?
A: Its IC50 is 594 nM.

Q: What about the IC50 [2] of the same molecule?
A: Its IC50 is 1760 nM.

Q: And the IC50 [3]?
A: The IC50 was 1300 nM.

Q: And the IC50 [4]?
A: The IC50 was 1080 nM.

Q: What about the IC50 [5] of the same molecule?
A: Its IC50 is 423 nM.

Q: And the IC50 [6]?
A: The IC50 was 2520 nM.

Q: And the IC50 [7]?
A: Its IC50 is 1700 nM.

Q: And the IC50 [8]?
A: The IC50 was 1890 nM.

Q: And the IC50 [9]?
A: The IC50 was 51 nM.

Q: And the IC50 [10]?
A: The IC50 was 3610 nM.

Q: What about the IC50 [11] of the same molecule?
A: The IC50 was 1920 nM.

Q: What about the IC50 [12] of the same molecule?
A: The IC50 was 866 nM.
